According to US7989474B2, “Use of Lck inhibitors for treatment of immunologic diseases” (Boehringer Ingelheim Pharma GmbH & Co. KG, priority 2002, dated 2011):

Molecular target: T1, lck enzyme (Homo sapiens, UniProt P06239)
T1 construct: The lck enzyme comprises the entire lck molecule except the first nine amino acids which are replaced by an His-tag; His-tag (N); made in house
Assay: Non-Radioactive Kinase Assay (lck)
Format: biochemical
Settings: mean values of two independent experiments
Procedure: The lck enzyme comprises the entire lck molecule except the first nine amino acids which are replaced by an His-tag for purification purposes. The enzyme is affinity purified.
The reaction is started by the addition of 50 μl 500 μM ATP (in 10 mM MgAc2) and is performed at room temperature.
The solution is incubated for one hour at room temperature and the supernatant discarded. The well is washed twice with 300 μl PBS.

T1 sequence (P06239 10-509 limits assumed, species assumed): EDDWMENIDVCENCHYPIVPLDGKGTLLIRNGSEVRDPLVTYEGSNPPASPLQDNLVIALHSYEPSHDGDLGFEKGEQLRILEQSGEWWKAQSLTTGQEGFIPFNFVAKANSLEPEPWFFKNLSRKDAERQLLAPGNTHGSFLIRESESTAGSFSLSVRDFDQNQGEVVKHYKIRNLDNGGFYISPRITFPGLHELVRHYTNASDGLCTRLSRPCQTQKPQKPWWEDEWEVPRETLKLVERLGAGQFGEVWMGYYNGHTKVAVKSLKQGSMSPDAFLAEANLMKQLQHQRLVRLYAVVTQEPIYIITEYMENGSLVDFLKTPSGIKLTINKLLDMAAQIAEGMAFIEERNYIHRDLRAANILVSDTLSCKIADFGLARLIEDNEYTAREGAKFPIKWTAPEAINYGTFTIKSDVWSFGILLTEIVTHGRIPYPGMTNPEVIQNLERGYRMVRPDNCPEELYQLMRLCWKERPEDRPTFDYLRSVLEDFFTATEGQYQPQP

IC50: 36 nM
Compound: COC(=O)c1ccc2c(c1)NC(=O)/C2=C(\Nc1ccc(N(C)C(=O)CN(C)C)cc1)c1ccccc1 [(AI), (Z)-3-(1-(4-(N-(dimethylaminomethylcarbonyl)-N-methyl-amino)-phenylamino)-1-phenyl-methylene)-6-methoxycarbonyl-2-indolinone]
